Consider 1 compound from patent US20050048007A1, “Plaque reducing composition” (INOBYS LTD., priority 2000, published 2005).

The structures appear in SMILES notation. In brackets after ≈: the same amount, converted by molar mass.

Holding throughout (assay): MIC by serial dilutions in BHI broth (NCCLS)
Holding throughout (format): cell-based

For one assay, the system named is A. viscosus. The conditions noted are these: Actinomyces viscosus, 37.5 degrees C., 24 hr, turbidity. The source says: (§1) Efficacy of this delivery system was shown as follows: 1. Minimum Inhibitory Concentration (MIC)
(§2) High numbers of microorganisms inhabit the oral cavity. Aerobic and anerobic bacteria combine to produce plaque, the soft sticky film adhering to the surface of the teeth. These same bacteria produce sulfur compounds responsible for oral malodor. MIC studies are commonly used to evaluate the potential effectiveness of oral washes and rinses in reducing undesirable bacteria in the oral cavity.
(§3) This […] study evaluates and compares the minimum inhibitory concentration at which two antimicrobial preparations (Solutions A & B) prevent the growth of oral microorganisms recognized as typical of those responsible for plaque and oral malodor formation. Solution A represents Example 1 (above); solution B, 0.1% chlorhexidine, represents a bench mark for efficacy, in that it is commonly accepted and used by oral care professionals to reduce plaque and malodor causing microbes.
(§4) MICs were established using the method of serial dilutions in BHI broth as established by NCCLS (National Committee for Clinical Laboratory Standards). Viable isolates of select strains of oral microbes were obtained commercially and cultured for ongoing use in the study. Serial dilutions of each of the test solutions were added to test tubes containing cultures of each isolate in BHI broth. Tubes were incubated at 37.5 degrees C. for 24 hr. and evaluated for signs of microbial growth (turbidity). Blank tubes of BHI broth, with and without microbial inoculates, were concomitantly run as a control for process sterility and viability.

For the next assay, the system named is K. pneumonia. To be noted: Klebsiella pneumoniae, 37.5 degrees C., 24 hr, turbidity.
From the text: as §1, §2, §3, §4

For a further assay, the system named is S. mutans. To be noted: Streptococcus mutans, 37.5 degrees C., 24 hr, turbidity.
From the text: as §1, §2, §3, §4

The test system of another assay is S. sanguinis. The conditions noted are these: Streptococcus sanguinis, 37.5 degrees C., 24 hr, turbidity.
From the text: as §1, §2, §3, §4

The test system of a further assay is S. sobrinus. The conditions noted are these: Streptococcus sobrinus, 37.5 degrees C., 24 hr, turbidity.
From the text: as §1, §2, §3, §4

For a further assay, the system named is V. atypica. The conditions noted are these: 37.5 degrees C., 24 hr, turbidity.
From the text: as §1, §2, §3, §4

`[H]/N=C(\N/C(=N/[H])NCCCCCCNC(=N)NC(=N)Nc1ccc(Cl)cc1)Nc1ccc(Cl)cc1` [0.1% CHX, chlorhexidine]: the MIC – broadly, the smallest concentration in the dilution series that meets the test's criterion for growth inhibition – in the assay on A. viscosus was determined as 320 µg/mL (≈ 633 µM); against K. pneumonia, 650 µg/mL (≈ 1290 µM); in the assay on S. mutans, 320 µg/mL (≈ 633 µM); against S. sanguinis it was 80 µg/mL (≈ 158 µM); against S. sobrinus it was 80 µg/mL (≈ 158 µM); in the assay on V. atypica, 160 µg/mL (≈ 317 µM).
